Patent US7083809B2, “Purified cytokine inhibitory factor” (Arkion Life Sciences, LLC, priority 2002, dated 2006)

Tests used:
[1] = tested on: PGE2 biosynthesis; test: Inhibition of PGE2 biosynthesis in LPS-stimulated RAW 264.7 cells (EIA); assay type: cell-based, mouse
Method: The assay began with overnight induction of COX-2 through mitogenic (LPS) stimulation of RAW 264.7 cell monolayers. The cell monolayers were then exposed to a test article (e.g. indomethacin) for 30 min at 37° C., and then an exogenous source of arachidonic acid was provided to the system. COX1 and COX2 (in addition to a PGE2 specific synthetase) converted the exogenous arachidonic acid to PGE2. Prostaglandin E2 in the culture medium was then quantified by a commercial EIA system. When less PGE2 was recovered from culture medium containing a test article than was recovered from culture medium alone, the condition was labeled inhibition.
Assay procedure: 5×10^6 Cells in DMEM medium were seeded and incubated in a 37° C., 5% CO2 incubator overnight. At approximately 24 h growth of cells seeded on day 1 (usually 90–100% confluence), growth medium was aseptically decanted and discarded. 10 ml sterile PBSA was gently pipetted into flasks against a non-growth surface, and the cells were washed twice. 10 ml DMEM containing LPS (2 ng/ml) was added to the tested flasks. Flasks were placed in a 37° C., 5% CO2 incubator overnight for 16 h.
At 16 h post-initial LPS exposure, growth medium was aseptically removed (suction) and discarded. 10 ml sterile PBSA was gently pipetted into flasks against a non-growth surface, and the cells were washed twice. Cells were incubated in the presence of 2 ml PBSA, 2 ml positive control drugs, or 2 ml yolk lipids sample (1.0 mg/ml) at 37° C. After 30 min incubation, 222 μl of 300 ΞM arachidonic acid was added to every flask. Cells were incubated for an additional 15 min at 37° C. in presence of the 30 μM arachidonic acid. After the 15 min incubation, 50 μl of 1 mg/ml indomethacin was added to contents of flask to stop the reaction. All fluids from flasks were collected into appropriately labeled polypropylene tubes.
Prostaglandin E2 was assayed with the commercial ELISA kit (Amersham RPN222) at room temperature following the standard protocol.

[2] = tested on: TNF-α; test: LPS-induced cytokine mRNA inhibition assay in THP1 monocytes (RT-PCR); assay type: cell-based, human; settings: THP1 cells, culture medium
[3] = tested on: IL-1β; test: as above; assay type: cell-based, human; settings: THP1 cells
[4] = 20 cancer patients, intravenous pretreatment followed by intravenous endotoxin; cited from earlier work
[5] = tested on: murine macrophage; settings: cited from earlier work

## CC(=O)Oc1ccccc1C(=O)O [aspirin]
[1]
  Inhibition of PGE2 biosynthesis in cells (in words): inhibited

## lipopolysaccharide [LPS]
[2]
  LPS concentration of maximum induction for TNFa: around 0.2 mg/ml
[3]
  LPS concentration able to induce IL-1b: 0.008 mg/mL

## CCCCCCCCCCC[C@@H](O)CC(=O)N[C@H]1[C@@H](OP(=O)(O)O)O[C@H](CO)[C@@H](OC(=O)C[C@H](O)CCCCCCCCCCC)[C@@H]1OC(=O)C[C@H](O)CCCCCCCCCCC [SDZ MRL 953]
[4]
  Release of TNF-α, IL-1β, IL-8, IL-6, and G-CSF: markedly reduced

## COc1ccc2c(c1)c(CC(=O)O)c(C)n2C(=O)c1ccc(Cl)cc1 [indomethacin]
[1]
  Inhibition of PGE2 biosynthesis in cells (in words): inhibited

## CC(C)Cc1ccc(C(C)C(=O)O)cc1 (stereo not shown) [ibuprofen]
[1]
  Inhibition of PGE2 biosynthesis in cells (in words): inhibited

## CCCCCCCCCCCCCC(=O)N[C@H]1[C@H](OC[C@H]2O[C@H](OC(CC(=O)O)CC(=O)O)[C@H](NC(=O)CCCCCCCCCCCCC)[C@@H](OC(=O)CNC(=O)CCCCCCCCCCC)[C@@H]2O)O[C@H](CO)[C@@H](OP(=O)(O)O)[C@@H]1OC(=O)CNC(=O)CCCCCCCCCCC [DT-5461a]
[5]
  Induction of TNF-α, IL-1β, IL-6, and GM-CSF: induces
